Measurements reported in publication PMC12435401 (Chemistry & Biodiversity, 2025).

Molecular target: acetylcholinesterase (AChE) (Electrophorus electricus, UniProt O42275)
Assay: Ellman's assay with AChE isolated from Electrophorus electricus
Type: biochemical

Chain of acetylcholinesterase (AChE) (O42275 24-633): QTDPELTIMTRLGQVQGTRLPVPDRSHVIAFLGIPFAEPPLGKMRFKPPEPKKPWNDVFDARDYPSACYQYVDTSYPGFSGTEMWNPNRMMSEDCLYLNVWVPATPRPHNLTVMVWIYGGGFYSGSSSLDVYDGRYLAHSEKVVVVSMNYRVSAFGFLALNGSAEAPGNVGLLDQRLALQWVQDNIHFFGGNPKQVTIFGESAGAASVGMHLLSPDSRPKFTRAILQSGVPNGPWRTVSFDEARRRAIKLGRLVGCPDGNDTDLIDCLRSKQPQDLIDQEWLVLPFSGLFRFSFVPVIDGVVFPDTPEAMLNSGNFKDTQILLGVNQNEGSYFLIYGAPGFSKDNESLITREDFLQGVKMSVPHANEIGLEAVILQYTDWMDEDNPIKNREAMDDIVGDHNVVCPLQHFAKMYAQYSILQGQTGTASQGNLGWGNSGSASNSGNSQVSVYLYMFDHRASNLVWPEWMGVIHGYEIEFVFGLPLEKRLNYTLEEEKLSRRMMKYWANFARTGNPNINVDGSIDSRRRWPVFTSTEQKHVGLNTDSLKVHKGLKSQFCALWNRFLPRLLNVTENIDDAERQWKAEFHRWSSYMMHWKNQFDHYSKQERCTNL

C[C@@H]1CC(=O)O[C@H]2C[C@@]3(C)[C@@H]4CC[C@H]5C(C)(C)C(=O)CC[C@@]56C[C@@]46CC[C@]3(C)[C@@H]12 [compound 6]
IC50: 53.5 ± 2.53 µM
